Data on two compounds can be found in patent US11179363B2, “Non-steroidal selective glucocorticoid receptor agonistic modulators (SEGRAMs) and uses thereof” (ASSOCIATION POUR LA RECHERCHE À L'IGBMC (ARI), priority 2017, dated 2021).

Series [1] has as its system thymus, spleen, adrenal gland and kidney. The series is described as follows: Organ weights (thymus, spleen, adrenal gland, kidney) after three-month treatment. The settings on record: s.c. 1 mg/kg daily, three months. Format: in vivo, B6 male mice. How it is done:
B6 male mice (8-week-old) were daily subjected for three months to a subcutaneous injection of either vehicle (NaCl 0.9%), Dex, CpdX, CpdX(eA), CpdX(eB), CpdX-D3, CpdX-D3(eA) or CpdX-D3(eB) (1 mg/kg body weight, diluted in vehicle). Following these treatments, four organs (thymus, spleen, adrenal gland and kidney) were harvested and weighted.

The subject of the next series is adrenal glands. Description: Corticosterone synthesis and adrenal gland after three-month treatment. To be noted: three months; for cortex layers, most notably the fasciculata zone, of the adrenal glands (histology) / transcripts of Cyp11a, Cyp11b1 and HSD3β genes in adrenal glands (corticosterone synthesis pathway): s.c. 1 mg/kg daily; for transcripts of Cyp11a, Cyp11b1 and HSD3β genes in adrenal glands (corticosterone synthesis pathway): q-RT-PCR; for plasmatic corticosterone level at 10 a.m.: vs Vehicle. It counts as in vivo, B6 male mice. How it is done: B6 male mice (8-week-old) were daily subjected for three months to either a subcutaneous injection of vehicle (NaCl 0.9%), Dex, CpdX, CpdX(eA), CpdX(eB), CpdX-D3, CpdX-D3(eA) or CpdX-D3(eB) (1 mg/kg body weight, diluted in vehicle).
Following this long-term treatment, blood was collected at 10 a.m. and 6 p.m. by retro-orbital puncture in lithium-heparin coated vials, and the plasmatic level of corticosterone was determined. Adrenal glands were harvested and weighted. RNA transcripts were extracted and transcripts of the Cyp11a, Cyp11b1, Cyp11b2 and HSD3β genes were analyzed by q-RT-PCR. Histological analyses of the adrenal glands were also carried out.

Series [2] can be described thus: Blood glucose and intraperitoneal glucose tolerance test (IPGTT) after three-month treatment. Format: in vivo, B6 male mice. The settings on record: three months; glucose i.p. injection. How it is done:
B6 male mice (8-week-old) were daily subjected for three months to a subcutaneous injection of either vehicle (NaCl 0.9%), Dex, CpdX, CpdX(eA), CpdX(eB), CpdX-D3, CpdX-D3(eA) or CpdX-D3(eB) (1 mg/kg body weight, diluted in vehicle). Mice were over-night-fasted. Mouse blood glucose concentration was measured before (To) and during two hours (T120) after glucose i.p. injection ([…]).

Series [3] relates to dorsal skin of Balb/C mice. The series is described as follows: Skin epidermis atrophy after 8-day topical treatment of dorsal skin. It counts as in vivo. The settings on record: eight-day topical treatment. The source says: To investigate whether, similarly to Dex, a topical administration of CpdX could result in a skin atrophy, Balb/C mice were shaved on the dorsal skin. Ethanol (vehicle), Dex, CpdX or either one of its two enantiomers CpdX(eA) or CpdX(eB), as well as the deuterated form CpdX-D3 or either one of its two enantiomers CpdX-D3(eA) or CpdX-D3(eB), were topically applied onto the dorsal skin for 8 days.
Upon completion of the treatments, RNA transcripts were extracted from dorsal skin samples and the transcripts of Kindlin-1 and REDD1 genes were analyzed by q-RT-PCR. Histological and morphometric analyses of the dorsal skin were also performed.

Series [4] concerns OVA-induced allergic conjunctivitis. Description: Ovalbumin (OVA)-induced allergic conjunctivitis. The settings on record: 0.1% instillation D22 to D24, 20 minutes after the last OVA challenge. Format: in vivo, Balb/C mice. How it is done:
To investigate the anti-inflammatory effect of CpdX or CpdX-D3 on an allergic conjunctivitis, Balb/C mice were intraperitoneally sensitized with 50 μg OVA with alum on both days D1 and D8, and then challenged from D15 to D21 with 250 μg OVA in 5 μL of sterilized vehicle (0.9% NaCl), which were directly instilled onto the conjunctival sac. From D22 to D24, mice were divided into several groups, and received instillations with either OVA alone, OVA together with 0.1% of either Dex, CpdX, CpdX(eA), CpdX(eB), CpdX-D3, CpdX-D3(eA) or CpdX-D3(eB).
The clinical appearance of mouse eyes was evaluated 20 minutes after the last instillation on D24. Clinical signs (conjunctival hyperemia, lid edema and tearing) were scored to evaluate the occurrence and severity of conjunctivitis as described by Gimenes et al. (2015. Experimental Eye Research 134:24-32). Parameters were graded on a scale ranging from 0 to 3, (0=absence, 1=mild, 2=moderate, and 3=severe symptoms), each animal receiving a total clinical score ranging from 0 to 9. The data were expressed as mean±SEM with at least four mice per treatment.

Series [5] deals with collagen-induced Th17 rheumatoid arthritis-like inflammation. Description: Collagen-induced arthritis (CIA). Format: in vivo, mice (DBA-1 strain). The settings on record: i.p. 1 mg/kg daily for 10 days (T0 to T10); 1 mg/kg. The protocol: Mice were treated with collagen to induce a Th17 rheumatoid arthritis-like inflammation as described by Inglis et al. (2007. Arthritis Res Ther. 9(5):R113) and Geboes et al. (2009. Arthritis Rheum. 60(2):390-5).
Male mice (DBA-1 strain) were subcutaneously-injected with 100 μg collagen per mouse on D0. The hind paw thickness at the ankle level was regularly measured with a caliper. When the ankle thickness had reached around 4 mm (T0, i.e., 30 to 50 days after the collagen injection on D0), mice were daily intraperitoneally-injected for 10 days (T0 to T10) with either vehicle (NaCl 0.9%), Dex, CpdX, CpdX(eA), CpdX(eB), CpdX-D3, CpdX-D3(eA) or CpdX-D3(eB) (1 mg/kg body weight diluted in NaCl 0.9%), and the hind paw thickness at the ankle level was daily measured with a caliper. Pictures of the hind paws were taken at days T0 and T10 (before and after the treatment with either Vehicle, Dex, CpdX, CpdX(eA), CpdX(eB), CpdX-D3, CpdX-D3(eA) or CpdX-D3(eB)), in order to assess the course of swelling.
RNA transcripts were extracted from whole hind paws of collagen-untreated and collagen-treated mice at T0 and T10. IL-1β, IL-6, IL-17a, IL-17f and TNFα transcripts were analyzed by q-RT-PCR.

For series [6], the system named is DSS-induced Th17 ulcerative colitis. Description: Dextran sodium sulfate (DSS)-induced ulcerative colitis. The settings on record: for pro-inflammatory genes overexpressed in DSS-induced ulcerative colitis (IL-1β, IL-6, IL-17a, IL-17f, TSLP, MMP13): colon, q-RT-PCR, D14; for colonic villus/crypt structure (histology) / mucosal and submucosal cell infiltration (histology): i.p. 1 mg/kg on D11, D12, D13, 3% DSS 13 days. Format: in vivo, Balb/C mice. How it is done: To investigate the anti-inflammatory activity of CpdX and CpdX-D3 on a Th17 ulcerative colitis, Balb/C mice were treated with 3% DSS in drinking water for 13 days, with or without an intraperitoneal administration of either Dex, CpdX, CpdX(eA), CpdX(eB), CpdX-D3, CpdX-D3(eA) or CpdX-D3(eB) (1 mg/kg of body weight) on D11, D12 and D13.
At D14, RNA transcripts were extracted from mouse colons. IL-1β, IL-6, IL-17a, IL-17f, TSLP and MMP13 transcripts were analyzed by q-RT-PCR. Colon samples were also harvested for histological analyses (with H&E staining).

As for `COc1ccc(F)cc1C(C)(C)CC(O)(CNc1ccc2c(c1)COC2=O)C(F)(F)F` (single isomer, unassigned; enantiomer b) [CpdX(eB), 5-[4-(5-fluoro-2-methoxyphenyl)-2-hydroxy-4-methyl-2-(trifluoromethyl)-pentylamino]isobenzofuran-1(3H)-one enantiomer B], the “thymus apoptosis (thymus weight)” value in series [1] is “did not result in any significant thymus apoptosis”. Also, in the series with adrenal glands, the “cortex layers, most notably the fasciculata zone, of the adrenal glands (histology)” value is “markedly increased”; the “transcripts of Cyp11a, Cyp11b1 and HSD3β genes in adrenal glands (corticosterone synthesis pathway)” value is recorded as “increased”; the “plasmatic corticosterone level at 10 a.m.” value was “much higher”. In addition, the “blood glucose level during two-hour IPGTT” value in series [2] is “no significant difference”. In addition, in series [3], the “epidermal thickness (morphometric analyses)” value is reported as “not significantly decreased”. For the same compound, the “clinical signs of allergic conjunctivitis (conjunctival hyperemia, lid edema and tearing)” value in series [4] is reported as “considerably reduced”. In addition, in series [5], the “hind paw thickness at the ankle level” value was “no such decrease”. In series [6], the “pro-inflammatory genes overexpressed in DSS-induced ulcerative colitis (IL-1β, IL-6, IL-17a, IL-17f, TSLP, MMP13)” value is listed as “similarly repressed”; the “colonic villus/crypt structure (histology)” value is “almost reestablished”; the “mucosal and submucosal cell infiltration (histology)” value is “significantly decreased”.

With `[2H]C([2H])([2H])Oc1ccc(F)cc1C(C)(C)CC(O)(CNc1ccc2c(c1)COC2=O)C(F)(F)F` (single isomer, unassigned; enantiomer b) [CpdX-D3(eB), 5-{4-[2-(methoxy-D3)-5-fluorophenyl]-2-hydroxy-4-methyl-2-(trifluoromethyl)pentylamino}isobenzofuran-1(3H)-one enantiomer B], the “thymus apoptosis (thymus weight)” value in series [1] is on record as “did not result in any significant thymus apoptosis”. Moreover, in the series with adrenal glands, the “cortex layers, most notably the fasciculata zone, of the adrenal glands (histology)” value is reported as “markedly increased”; the “transcripts of Cyp11a, Cyp11b1 and HSD3β genes in adrenal glands (corticosterone synthesis pathway)” value is “increased”; the “plasmatic corticosterone level at 10 a.m.” value was “much higher”. Moreover, the “blood glucose level during two-hour IPGTT” value in series [2] was “no significant difference”. Also, in series [3], the “epidermal thickness (morphometric analyses)” value was “not significantly decreased”. In addition, the “clinical signs of allergic conjunctivitis (conjunctival hyperemia, lid edema and tearing)” value in series [4] is reported as “considerably reduced”. The “hind paw thickness at the ankle level” value in series [5] was “no such decrease”. In addition, in series [6], the “pro-inflammatory genes overexpressed in DSS-induced ulcerative colitis (IL-1β, IL-6, IL-17a, IL-17f, TSLP, MMP13)” value was “similarly repressed”; the “colonic villus/crypt structure (histology)” value is reported as “almost reestablished”; the “mucosal and submucosal cell infiltration (histology)” value is on record as “significantly decreased”.
